Measured values reported in PMC8545135, “Discovery of Bacterial Fimbria–Glycan Interactions Using Whole-Cell Recombinant Escherichia coli Expression” (mBio, 2021).

Tests used:
[1] = target: T1, FimH^LD (purified FimH lectin-binding domain) (Escherichia coli, UniProt P08191); assay: SPR, CM5 chip, immobilized protein; conditions: glycans 1.6 nM to 1 μM
T1 construct: purified as previously described
Source text: SPR, CM5 chip, immobilized protein on FimH^LD (purified FimH lectin-binding domain)

[2] = target: T2, FimH (E. coli); type 1 fimbriae, MS428(pPKL4) (Escherichia coli, UniProt P08191); assay: whole-cell SPR, Biacore T200, C1 chip, single-cycle kinetics; format: cell-based; conditions: fimbriae on immobilized whole cells; MS428 reference cell
T2 construct: with Type-1 fimbrial protein, A chain; Protein FimF; Protein FimG
Source text: whole-cell SPR, Biacore T200, C1 chip, single-cycle kinetics on FimH (E. coli); type 1 fimbriae, MS428(pPKL4)

[3] = target: T3, K88 (E. coli); F4ac (K88ac) fimbriae, MS428(pK88-AC) (Escherichia coli, UniProt P14190); assay: as above; format: cell-based; conditions: fimbriae on immobilized whole cells; MS428 reference cell
T3 construct: gene faeG; native F4ac fimbriae on whole cells of fim-negative E. coli MS428, plasmid pK88-AC with F4ac gene cluster
Source text: whole-cell SPR, Biacore T200, C1 chip, single-cycle kinetics on K88 (E. coli); F4ac (K88ac) fimbriae, MS428(pK88-AC)

T2 sequence (P08191 22-300): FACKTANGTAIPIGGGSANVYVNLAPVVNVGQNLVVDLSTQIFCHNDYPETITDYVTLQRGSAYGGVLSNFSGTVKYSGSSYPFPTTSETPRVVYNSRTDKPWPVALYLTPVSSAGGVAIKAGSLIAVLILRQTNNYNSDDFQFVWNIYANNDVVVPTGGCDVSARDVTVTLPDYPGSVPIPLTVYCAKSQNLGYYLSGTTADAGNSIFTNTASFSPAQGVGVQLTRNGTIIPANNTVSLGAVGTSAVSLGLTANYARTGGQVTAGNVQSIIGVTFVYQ
T2 sequence (P04128 24-182, further chain): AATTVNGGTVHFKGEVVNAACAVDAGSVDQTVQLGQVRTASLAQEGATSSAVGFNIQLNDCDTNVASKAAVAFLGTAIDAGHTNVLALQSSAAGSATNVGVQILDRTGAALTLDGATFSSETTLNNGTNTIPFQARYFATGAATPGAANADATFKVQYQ
T3 sequence (P14190 22-283 limits assumed): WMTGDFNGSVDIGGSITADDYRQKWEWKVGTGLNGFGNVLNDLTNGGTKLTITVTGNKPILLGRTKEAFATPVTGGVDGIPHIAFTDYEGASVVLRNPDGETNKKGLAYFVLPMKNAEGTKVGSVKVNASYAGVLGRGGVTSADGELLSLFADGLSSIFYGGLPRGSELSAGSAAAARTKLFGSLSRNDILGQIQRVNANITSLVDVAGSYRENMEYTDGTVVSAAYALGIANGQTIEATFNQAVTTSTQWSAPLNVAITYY
T1 sequence (P08191 22-179): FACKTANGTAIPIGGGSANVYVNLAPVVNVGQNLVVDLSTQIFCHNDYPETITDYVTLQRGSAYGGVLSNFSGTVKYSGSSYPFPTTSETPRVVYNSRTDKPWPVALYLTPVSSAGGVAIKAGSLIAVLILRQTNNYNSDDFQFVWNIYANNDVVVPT

| Molecule | Disassociation constant^a: / FimH (protein) [1] [nM] | Disassociation constant^a: / FimH (E. coli) [2] [µM] | Disassociation constant^a: / K88 (E. coli) [3] [µM] |
| --- | --- | --- | --- |
| OCC1OC(OCC2OC(OCC3OC(O)C(O)C(OC4OC(CO)C(O)C(O)C4O)C3O)C(O)C(OC3OC(CO)C(O)C(O)C3O)C2O)C(O)C(O)C1O (stereo not drawn) [Man5] | 607 ± 142 | 2.0 ± 0.842 | – |
| OC[C@H]1O[C@H](O[C@H]2[C@@H](O)[C@@H](CO)OC(O)[C@@H]2O)[C@H](O)[C@@H](O)[C@H]1O (stereo partly drawn) [Galα1-3Gal] | – | – | 0.1603 ± 0.03 |
| Man5NAc | 25.9 ± 8.9 | 0.0274 ± 0.0168 | – |
| CC(=O)N[C@H]1[C@H](O[C@@H]2[C@H](O)[C@@H](O)[C@H](O[C@H]3[C@H](O)[C@@H](O)C(O)O[C@@H]3CO)O[C@@H]2CO)O[C@H](CO)[C@H](O)[C@@H]1O[C@@H]1O[C@H](CO)[C@H](O)[C@H](O)[C@H]1O (stereo partly drawn) [1F, AsialoGM1] | – | – | 11.02 ± 3.9 |
